Laboratory results from US6939887B2, “Benzimidazolidinone derivatives” (Sumitomo Pharmaceuticals Co., Ltd., priority 2001, dated 2005).
Counter-ions that a name gives are not always drawn.

Test system: pituitary cells (growth hormone release)
Assay: GH release promoting activity in cultured rat pituitary cells (GH level of supernatant by RIA)
Assay type: cell-based, rat (Wistar/ST)
Conditions: compound concentration 10000 nM, 15 min at 37° C.
Procedure: Benzimidazolidinone derivatives of the present invention were evaluated for their growth hormone (GH) release promoting activity by reference to the method described in a literature (R. G. Smith et al., Science, 260, 1640 (1993)).
Pituitary glands removed from 7-week-old male Wistar/ST rats were washed three times with HBSS(−) and the tissue was minced into small pieces (ca. 1 mm square) using a pair of scissors. The tissues were transferred to a 15 ml round-bottom centrifuge tube and washed three times with HBSS(−) (10 ml). An enzyme solution (0.1 ml per one pituitary gland) was added and enzymatic digestion was started in a water bath at 37° C. During the process, the mixture was pipetted every 5 minutes and the treatment was continued for ca 20-30 min until the cells were dispersed. The resulting cell suspension was centrifuged at 1200 rpm for 2-3 min at room temperature and the supernatant was discarded. A culture medium (8 ml) was added. Similar procedure was repeated twice and the dispersed cells were washed. The cells were plated in a 96-well plate (1×10^4 cells/100 μl/well) and incubation was started at 37° C. under 5% CO2 atmosphere.
Three days after the start of the culture, the supernatant was discarded and an assay medium was added. The cells were incubated for 1.5 h and washed once with the assay medium. A test compound solution was added and the cells were reacted at 37° C. for 15 min in an incubator under 5% CO2. The supernatant was recovered and the GH level thereof was measured by RIA.
A sample (50 μl) diluted with RIA buffer (1% BSA, 0.1% NaN3 and 25 mM EDTA/PBS (pH 7.6)), [^125I]-labeled GH solution (50 μl, ca. 10,000 cpm), and rabbit antiserum (diluted 1,000-fold) against rat GH (50 μl, Biogenesis Co) were placed in each well of a 96-well plate for RIA (Coster Co) and the mixture was reacted for 3 days at 4° C. Cell membrane fractions containing protein A were added and the mixture was allowed to stand for 20 min and centrifuged. The supernatant was recovered and the precipitates were washed with the RIA buffer. The ^125I amount was measured. The GH level of the sample was calculated from the standard curve drawn using the standard GH.
The composition of the culture medium was DMEM containing 10% horse serum, 2.5% fetal bovine serum, 1% nonessential amino acids, 1% antibiotics. The composition of the assay medium was 25 mM HEPES/culture medium (pH 7.3). The test compound solution was prepared by adding a compound solution (1 μl), adjusted to 1000-fold concentration with DMSO, to an assay medium (1 ml). Collagenase (400 mg), DNase type I (1 mg), and BSA (1 g) were dissolved in a 25 mM HEPES buffer (pH 7.4, 40 ml) containing 0.8% NaCl, 0.037% KCl, 0.9% glucose, 1% streptomycin-penicillin and 0.7 mM Na2HPO4, and 1 mg/ml CaCl2 (226 μl) was added. The resulting solution was adjusted to a final volume of 50 ml by adding a HEPES buffer and sterilized by filtration through a 0.22 μm filter and used as the enzyme solution.
The GH release promoting activity of the compounds of Examples is shown in the following. For the activity, the ratio of GH level of the supernatant in the presence of the test compound (compound concentration 10000 nM) to GH level of supernatant in the absence of the compound (GH level of supernatant in the presence of the compound/GH level of supernatant in the absence of the compound).

SMILES	GH release promoting activity = (GH level of supernatant in the presence of the compound)/(GH level of supernatant in the absence of the compound)
CCN(CC)CCn1c(=O)n(Cc2cccc(C(F)(F)F)c2)c2c(C(F)(F)F)cc(C(N)=O)cc21 [Example 9, 3-[2-(diethylamino)ethyl]-2-oxo-7-(trifluoromethyl)-1-[3-(trifluoromethyl)benzyl]-2,3-dihydro-1H-benzimidazole-5-carboxamide trifluoroacetate]	1.3
CCN(CC)CCn1c(=O)n(Cc2ccccc2Cl)c2c(C(F)(F)F)cc(C(N)=O)cc21 [Example 5, 1-(2-chlorobenzyl)-3-[2-(diethylamino)ethyl]-2-oxo-7-(trifluoromethyl)-2,3-dihydro-1H-benzimidazole-5-carboxamide trifluoroacetate]	1.3
CCN(CC)CCn1c(=O)n(Cc2ccccc2C)c2c(C(F)(F)F)cc(C(N)=O)cc21 [Example 16, 3-[2-(diethylamino)ethyl]-1-(2-methylbenzyl)-2-oxo-7-(trifluoromethyl)-2,3-dihydro-1H-benzimidazole-5-carboxamide trifluoroacetate]	1.0
CCN(CC)CCn1c(=O)n(Cc2cccc(Cl)c2)c2c(C(F)(F)F)cc(C(N)=O)cc21 [Example 3, 1-(3-chlorobenzyl)-3-[2-(diethylamino)ethyl]-2-oxo-7-(trifluoromethyl)-2,3-dihydro-1H-benzimidazole-5-carboxamide trifluoroacetate]	1.2
CCN(CC)CCn1c(=O)n(-c2ccc(Cl)cc2)c2c(C(F)(F)F)cc(C(N)=O)cc21 [Example 7, 1-(4-chlorophenyl)-3-[2-(diethylamino)ethyl]-2-oxo-7-(trifluoromethyl)-2,3-dihydro-1H-benzimidazole-5-carboxamide trifluoroacetate]	3.0
CCN(CC)CCn1c(=O)n(-c2ccc(Cl)cc2Cl)c2c(C(F)(F)F)cc(C(N)=O)cc21 [Example 8, 1-(2,4-dichlorophenyl)-3-[2-(diethylamino)ethyl]-2-oxo-7-(trifluoromethyl)-2,3-dihydro-1H-benzimidazole-5-carboxamide trifluoroacetate]	2.1
